Structures are written as SMILES.

The target in the first experiment is T1, T1R2/T1R3 taste receptor (Homo sapiens, UniProt Q7RTX0+Q8TE23).
T1 sequence (Q8TE23 20-839): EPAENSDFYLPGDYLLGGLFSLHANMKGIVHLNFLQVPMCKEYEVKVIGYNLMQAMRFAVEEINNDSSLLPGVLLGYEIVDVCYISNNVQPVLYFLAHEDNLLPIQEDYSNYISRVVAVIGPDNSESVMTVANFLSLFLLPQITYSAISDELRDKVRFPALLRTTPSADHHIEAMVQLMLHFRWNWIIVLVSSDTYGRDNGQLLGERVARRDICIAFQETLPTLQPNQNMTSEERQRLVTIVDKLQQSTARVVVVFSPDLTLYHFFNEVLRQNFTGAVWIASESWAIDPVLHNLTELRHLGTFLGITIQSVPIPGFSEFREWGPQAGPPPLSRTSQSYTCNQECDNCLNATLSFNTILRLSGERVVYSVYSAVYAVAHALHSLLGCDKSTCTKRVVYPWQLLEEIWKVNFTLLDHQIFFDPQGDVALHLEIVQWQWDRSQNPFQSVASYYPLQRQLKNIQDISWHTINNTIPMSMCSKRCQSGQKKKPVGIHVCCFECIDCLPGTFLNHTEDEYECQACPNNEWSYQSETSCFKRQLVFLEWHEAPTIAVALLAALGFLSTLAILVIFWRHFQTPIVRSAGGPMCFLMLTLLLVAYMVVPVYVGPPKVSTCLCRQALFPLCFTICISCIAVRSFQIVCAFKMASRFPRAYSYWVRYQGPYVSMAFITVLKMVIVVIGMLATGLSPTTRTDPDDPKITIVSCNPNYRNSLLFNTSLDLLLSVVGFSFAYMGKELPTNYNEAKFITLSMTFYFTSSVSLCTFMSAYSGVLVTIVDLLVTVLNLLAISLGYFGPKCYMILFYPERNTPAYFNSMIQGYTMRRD
T1 sequence (Q7RTX0 21-852): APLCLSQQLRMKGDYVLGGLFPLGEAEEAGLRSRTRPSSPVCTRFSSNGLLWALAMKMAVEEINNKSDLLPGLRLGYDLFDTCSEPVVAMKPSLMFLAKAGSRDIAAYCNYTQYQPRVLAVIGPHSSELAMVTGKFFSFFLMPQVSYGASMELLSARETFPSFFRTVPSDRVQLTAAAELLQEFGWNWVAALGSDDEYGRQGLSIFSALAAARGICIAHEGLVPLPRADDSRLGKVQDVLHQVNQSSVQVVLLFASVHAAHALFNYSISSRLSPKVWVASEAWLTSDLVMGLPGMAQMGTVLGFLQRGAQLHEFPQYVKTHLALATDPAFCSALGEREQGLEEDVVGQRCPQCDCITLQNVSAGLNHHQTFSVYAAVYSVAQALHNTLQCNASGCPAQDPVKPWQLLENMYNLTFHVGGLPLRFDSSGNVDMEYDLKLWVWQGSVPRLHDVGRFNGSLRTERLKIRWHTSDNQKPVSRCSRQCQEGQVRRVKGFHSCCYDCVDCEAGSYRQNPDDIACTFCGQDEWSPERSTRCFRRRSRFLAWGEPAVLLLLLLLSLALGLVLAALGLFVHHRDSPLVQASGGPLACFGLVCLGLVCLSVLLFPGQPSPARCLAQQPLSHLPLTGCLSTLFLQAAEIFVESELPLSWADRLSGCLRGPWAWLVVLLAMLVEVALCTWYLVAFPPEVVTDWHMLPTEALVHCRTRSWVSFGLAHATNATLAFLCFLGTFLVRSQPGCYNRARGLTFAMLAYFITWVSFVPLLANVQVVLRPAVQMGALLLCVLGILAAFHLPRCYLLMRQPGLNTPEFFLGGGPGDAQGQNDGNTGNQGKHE
The experiment is described as follows: Receptor-based assay: sweetener EC50 enhancement ratio with and without test compound. It counts as cell-based. As to conditions: 1 μM test compound; sweetener sucrose. The method in brief:
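Sweetener (sucrose, sucralose, fructose) EC50 measured alone and with 1, 3, 10 or 50 μM test compound. Enhancement ratio = EC50 without/with compound; A = >1 to <10, B = 10–20, C = >20.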
For `COc1cc(OC)nc(N[C@H]2CC[C@H](Oc3cccc4nc(C)c(C(=O)O)c(N)c34)CC2)n1` [Compound 710], the “Sucrose Enhancement EC50 Ratio” value is “A (an enhancement ratio of greater than 1 and less than 10)”.
On to `CCc1cnc(N[C@H]2CC[C@H](Oc3cccc4nc(C)c(C(=O)O)c(N)c34)CC2)nc1` [Compound 711], for which the “Sucrose Enhancement EC50 Ratio” value is “A (an enhancement ratio of greater than 1 and less than 10)”.
In the case of `Cc1cc(N[C@H]2CC[C@H](Oc3cccc4nc(C)c(C(=O)O)c(N)c34)CC2)nc(N)n1` [Compound 712], the “Sucrose Enhancement EC50 Ratio” value was “A (an enhancement ratio of greater than 1 and less than 10)”.
As to `Cc1nc2cccc(O[C@H]3CC[C@H](Nc4cnccn4)CC3)c2c(N)c1C(=O)O` [Compound 713], the “Sucrose Enhancement EC50 Ratio” value is “A (an enhancement ratio of greater than 1 and less than 10)”.
The same measure, in the same setting: to `Cc1nccc(N[C@H]2CC[C@H](Oc3cccc4nc(C)c(C(=O)O)c(N)c34)CC2)n1` [Compound 714] belongs “A (an enhancement ratio of greater than 1 and less than 10)”.

The experiment is the same for the next values; noted with them: 3 μM test compound; sweetener sucralose.
Take `COc1cc(OC)nc(N[C@H]2CC[C@H](Oc3cccc4nc(C)c(C(=O)O)c(N)c34)CC2)n1` [Compound 710]: the “Sucralose Enhancement EC50 Ratio” value is “A (an enhancement ratio of greater than 1 and less than 10)”.
Consider `CCc1cnc(N[C@H]2CC[C@H](Oc3cccc4nc(C)c(C(=O)O)c(N)c34)CC2)nc1` [Compound 711], for which the “Sucralose Enhancement EC50 Ratio” value is listed as “B (an enhancement ratio from 10 to 20)”.
As to `Cc1cc(N[C@H]2CC[C@H](Oc3cccc4nc(C)c(C(=O)O)c(N)c34)CC2)nc(N)n1` [Compound 712], the “Sucralose Enhancement EC50 Ratio” value is reported as “B (an enhancement ratio from 10 to 20)”.
Take `Cc1nc2cccc(O[C@H]3CC[C@H](Nc4cnccn4)CC3)c2c(N)c1C(=O)O` [Compound 713]: the “Sucralose Enhancement EC50 Ratio” value was “A (an enhancement ratio of greater than 1 and less than 10)”.
The same measure, in the same setting: the same measure for `Cc1nccc(N[C@H]2CC[C@H](Oc3cccc4nc(C)c(C(=O)O)c(N)c34)CC2)n1` [Compound 714]: “A (an enhancement ratio of greater than 1 and less than 10)”.

The same experiment, now with this note: 3 μM test compound; sweetener sucrose.
`COc1cc(OC)nc(N[C@H]2CC[C@H](Oc3cccc4nc(C)c(C(=O)O)c(N)c34)CC2)n1` [Compound 710]: the “Sucrose Enhancement EC50 Ratio” value is “A (an enhancement ratio of greater than 1 and less than 10)”.
The same measure, in the same setting: to `CCc1cnc(N[C@H]2CC[C@H](Oc3cccc4nc(C)c(C(=O)O)c(N)c34)CC2)nc1` [Compound 711] belongs “A (an enhancement ratio of greater than 1 and less than 10)”; to `Cc1cc(N[C@H]2CC[C@H](Oc3cccc4nc(C)c(C(=O)O)c(N)c34)CC2)nc(N)n1` [Compound 712], “B (an enhancement ratio from 10 to 20)”.
For `Cc1nc2cccc(O[C@H]3CC[C@H](Nc4cnccn4)CC3)c2c(N)c1C(=O)O` [Compound 713], the “Sucrose Enhancement EC50 Ratio” value is “B (an enhancement ratio from 10 to 20)”.
As to `Cc1nccc(N[C@H]2CC[C@H](Oc3cccc4nc(C)c(C(=O)O)c(N)c34)CC2)n1` [Compound 714], the “Sucrose Enhancement EC50 Ratio” value is “A (an enhancement ratio of greater than 1 and less than 10)”.

Staying with this experiment, now noted: 10 μM test compound; sweetener fructose.
Consider `COc1cc(OC)nc(N[C@H]2CC[C@H](Oc3cccc4nc(C)c(C(=O)O)c(N)c34)CC2)n1` [Compound 710], for which the “Fructose Enhancement EC50 Ratio” value was “A (an enhancement ratio of greater than 1 and less than 10)”.
Still for that read-out and setting: the same measure for `CCc1cnc(N[C@H]2CC[C@H](Oc3cccc4nc(C)c(C(=O)O)c(N)c34)CC2)nc1` [Compound 711]: “A (an enhancement ratio of greater than 1 and less than 10)”; for `Cc1cc(N[C@H]2CC[C@H](Oc3cccc4nc(C)c(C(=O)O)c(N)c34)CC2)nc(N)n1` [Compound 712]: “A (an enhancement ratio of greater than 1 and less than 10)”; for `Cc1nc2cccc(O[C@H]3CC[C@H](Nc4cnccn4)CC3)c2c(N)c1C(=O)O` [Compound 713]: “A (an enhancement ratio of greater than 1 and less than 10)”.
For the compound `Cc1nccc(N[C@H]2CC[C@H](Oc3cccc4nc(C)c(C(=O)O)c(N)c34)CC2)n1` [Compound 714], the “Fructose Enhancement EC50 Ratio” value was “A (an enhancement ratio of greater than 1 and less than 10)”.

The experiment is the same for the next values; noted with them: 10 μM test compound; sweetener sucralose.
For the compound `COc1cc(OC)nc(N[C@H]2CC[C@H](Oc3cccc4nc(C)c(C(=O)O)c(N)c34)CC2)n1` [Compound 710], the “Sucralose Enhancement EC50 Ratio” value was “B (an enhancement ratio from 10 to 20)”.
On to `CCc1cnc(N[C@H]2CC[C@H](Oc3cccc4nc(C)c(C(=O)O)c(N)c34)CC2)nc1` [Compound 711], for which the “Sucralose Enhancement EC50 Ratio” value is given as “B (an enhancement ratio from 10 to 20)”.
With `Cc1cc(N[C@H]2CC[C@H](Oc3cccc4nc(C)c(C(=O)O)c(N)c34)CC2)nc(N)n1` [Compound 712], the “Sucralose Enhancement EC50 Ratio” value is given as “C (an enhancement ratio greater than 20)”.
As to `Cc1nc2cccc(O[C@H]3CC[C@H](Nc4cnccn4)CC3)c2c(N)c1C(=O)O` [Compound 713], the “Sucralose Enhancement EC50 Ratio” value was “B (an enhancement ratio from 10 to 20)”.
Same read-out and setting: to `Cc1nccc(N[C@H]2CC[C@H](Oc3cccc4nc(C)c(C(=O)O)c(N)c34)CC2)n1` [Compound 714] belongs “A (an enhancement ratio of greater than 1 and less than 10)”.

Still in this experiment, the particulars now being: 10 μM test compound; sweetener sucrose.
As for `COc1cc(OC)nc(N[C@H]2CC[C@H](Oc3cccc4nc(C)c(C(=O)O)c(N)c34)CC2)n1` [Compound 710], the “Sucrose Enhancement EC50 Ratio” value is given as “B (an enhancement ratio from 10 to 20)”.
As for `CCc1cnc(N[C@H]2CC[C@H](Oc3cccc4nc(C)c(C(=O)O)c(N)c34)CC2)nc1` [Compound 711], the “Sucrose Enhancement EC50 Ratio” value is “B (an enhancement ratio from 10 to 20)”.
Turning to `Cc1cc(N[C@H]2CC[C@H](Oc3cccc4nc(C)c(C(=O)O)c(N)c34)CC2)nc(N)n1` [Compound 712], the “Sucrose Enhancement EC50 Ratio” value is reported as “C (an enhancement ratio greater than 20)”.
Still for that read-out and setting: the same measure for `Cc1nc2cccc(O[C@H]3CC[C@H](Nc4cnccn4)CC3)c2c(N)c1C(=O)O` [Compound 713]: “B (an enhancement ratio from 10 to 20)”.
Still for that read-out and setting: the same measure for `Cc1nccc(N[C@H]2CC[C@H](Oc3cccc4nc(C)c(C(=O)O)c(N)c34)CC2)n1` [Compound 714]: “A (an enhancement ratio of greater than 1 and less than 10)”.

Staying with this experiment, now noted: 50 μM test compound; sweetener fructose.
Regarding `COc1cc(OC)nc(N[C@H]2CC[C@H](Oc3cccc4nc(C)c(C(=O)O)c(N)c34)CC2)n1` [Compound 710], the “Fructose Enhancement EC50 Ratio” value is “A (an enhancement ratio of greater than 1 and less than 10)”.
For the compound `CCc1cnc(N[C@H]2CC[C@H](Oc3cccc4nc(C)c(C(=O)O)c(N)c34)CC2)nc1` [Compound 711], the “Fructose Enhancement EC50 Ratio” value was “A (an enhancement ratio of greater than 1 and less than 10)”.
Turning to `Cc1cc(N[C@H]2CC[C@H](Oc3cccc4nc(C)c(C(=O)O)c(N)c34)CC2)nc(N)n1` [Compound 712], the “Fructose Enhancement EC50 Ratio” value is “A (an enhancement ratio of greater than 1 and less than 10)”.
On the same count and under the same terms, to `Cc1nc2cccc(O[C@H]3CC[C@H](Nc4cnccn4)CC3)c2c(N)c1C(=O)O` [Compound 713] belongs “A (an enhancement ratio of greater than 1 and less than 10)”; to `Cc1nccc(N[C@H]2CC[C@H](Oc3cccc4nc(C)c(C(=O)O)c(N)c34)CC2)n1` [Compound 714], “A (an enhancement ratio of greater than 1 and less than 10)”.

For the origin of these results see patent publication US11339128B2 (Firmenich Incorporated, priority 2014, dated 2022).
